{"source": "patent US20230212222A1", "about": "(ANYGEN CO., LTD., priority 2020, published 2023)", "note": "Square brackets hold non-standard residues; d marks the D form. Peptide text beside a SMILES is read from it. * marks the point of attachment. Tyr(3,5-(NO2)2) = N[C@@H](Cc1cc([N+](=O)[O-])c(O)c([N+](=O)[O-])c1)C(=O)O; His(Trt) = N[C@@H](Cc1cn(C(c2ccccc2)(c2ccccc2)c2ccccc2)cn1)C(=O)O; His(τ-CHPh2) = N[C@@H](Cc1cn(C(c2ccccc2)c2ccccc2)cn1)C(=O)O; His(τ-Bzl) = N[C@@H](Cc1cn(Cc2ccccc2)cn1)C(=O)O; dPhe(4-Br) = N[C@H](Cc1ccc(Br)cc1)C(=O)O; dPhe(4-Cl) = N[C@H](Cc1ccc(Cl)cc1)C(=O)O; dPhe(4-Me) = Cc1ccc(C[C@@H](N)C(=O)O)cc1; Dmt = Cc1cc(O)cc(C)c1C[C@H](N)C(=O)O; Lauroyl = CCCCCCCCCCCC(=O)*; Octanoyl = CCCCCCCC(=O)*"}
{"biological_target": "T1, GPR39 (Homo sapiens, UniProt O43194)", "T1 sequence (O43194 1-453)": "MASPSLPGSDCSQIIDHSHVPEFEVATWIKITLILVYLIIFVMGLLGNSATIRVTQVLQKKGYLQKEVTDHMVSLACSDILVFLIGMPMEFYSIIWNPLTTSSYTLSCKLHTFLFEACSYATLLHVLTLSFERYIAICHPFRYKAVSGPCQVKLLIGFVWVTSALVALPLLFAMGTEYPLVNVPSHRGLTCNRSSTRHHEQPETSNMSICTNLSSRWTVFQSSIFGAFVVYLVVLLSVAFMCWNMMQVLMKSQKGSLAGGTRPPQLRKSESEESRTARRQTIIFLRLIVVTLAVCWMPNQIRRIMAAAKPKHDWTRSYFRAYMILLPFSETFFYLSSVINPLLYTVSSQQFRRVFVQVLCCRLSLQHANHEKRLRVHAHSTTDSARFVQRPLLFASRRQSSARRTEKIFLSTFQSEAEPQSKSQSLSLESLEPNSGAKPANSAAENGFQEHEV", "assay": "not given", "conditions": "not given"}
{"smiles": "CCCCCCCC(=O)NCCCC[C@H](NC(=O)[C@@H](N)Cc1cn(Cc2ccccc2)cn1)C(=O)N[C@@H](Cc1ccccc1)C(=O)N[C@@H](Cc1ccc(O)cc1)C(=O)O", "note": "[HKFY-3, N2-(Nt-benzyl-L-histidyl)-N6-octanoyl-L-lysyl-L-phenylalanyl-L-tyrosine] (H-[His(τ-Bzl)]K(Octanoyl)FY-OH)", "ECmax (-fold induction over basal)": "9.2 ± 2.58 -fold induction over basal"}
{"smiles": "CCCCCCCC(=O)NCCCC[C@H](NC(=O)[C@@H](N)Cc1cn(C(c2ccccc2)(c2ccccc2)c2ccccc2)cn1)C(=O)N[C@H](Cc1ccc(Br)cc1)C(=O)N[C@@H](Cc1ccc(O)cc1)C(=O)O", "note": "[HKFY-29, ((R)-2-((S)-2-((S)-2-amino-3-(1-trityl-1H-imidazol-4-yl)propanamido)-6-octanamidohexanamido)-3-(4-bromophenyl)propanoyl)-L-tyrosine] (H-[His(Trt)]K(Octanoyl)[dPhe(4-Br)]Y-OH)", "ECmax (-fold induction over basal)": "26.8 ± 1.87 -fold induction over basal"}
{"smiles": "CCCCCCCC(=O)NCCCC[C@H](NC(=O)[C@@H](N)Cc1cn(C(c2ccccc2)(c2ccccc2)c2ccccc2)cn1)C(=O)N[C@@H](Cc1ccc(O)cc1)C(=O)N[C@@H](Cc1ccccc1)C(=O)O", "note": "[HKFY-47, N6-octanoyl-N2-(Nt-trityl-L-histidyl)-L-lysyl-L-tyrosyl-L-phenylalanine] (H-[His(Trt)]K(Octanoyl)YF-OH)", "ECmax (-fold induction over basal)": "13 ± 1.7 -fold induction over basal"}
{"smiles": "CCCCCCCC(=O)NCCCC[C@H](NC(=O)[C@@H](N)Cc1cn(CCC2CCCCC2)cn1)C(=O)N[C@@H](Cc1ccccc1)C(=O)N[C@@H](Cc1ccc(O)cc1)C(=O)O", "note": "[HKFY-11, N2-(Nt-(2-cyclohexylethyl)-L-histidyl)-N6-octanoyl-L-lysyl-L-phenylalanyl-L-tyrosine]", "ECmax (-fold induction over basal)": "22 ± 2.2 -fold induction over basal"}
{"smiles": "CCCCCCCC(=O)NCCCC[C@H](NC(=O)[C@@H](N)Cc1cn(C(c2ccccc2)(c2ccccc2)c2ccccc2)cn1)C(=O)N[C@@H](Cc1ccccc1)C(=O)N[C@@H](Cc1ccc(O)cc1)C(=O)N[C@@H](CO)C(=O)N[C@@H](CC(=O)O)C(=O)N[C@@H](CCC(N)=O)C(=O)N[C@@H](CCC(N)=O)C(=O)N[C@@H](C)C(=O)N[C@@H](CCCNC(=N)N)C(=O)N[C@@H](Cc1ccccc1)C(N)=O", "note": "[HKFY-38, (3S,6S,9S,12S,15S)-15-((S)-2-amino-3-(1-trityl-1H-imidazol-4-yl)propanamido)-12-benzyl-3-(((6S,9S,12S,15S)-1,18-diamino-6-(((S)-1-amino-1-oxo-3-phenylpropan-2-yl)carbamoyl)-12-(3-amino-3-oxopropyl)-1-imino-9-methyl-8,11,14,18-tetraoxo-2,7,10,13-tetraazaoctadecan-15-yl)carbamoyl)-9-(4-hydroxybenzyl)-6-(hydroxymethyl)-5,8,11,14,21-pentaoxo-4,7,10,13,20-pentaazaoctacosanoic acid] (H-[His(Trt)]K(Octanoyl)FYSDQQARF-NH2)", "ECmax (-fold induction over basal)": "16.5 ± 0.02 -fold induction over basal"}
{"smiles": "CCCCCCCC(=O)NCCCC[C@H](NC(=O)[C@@H](N)Cc1cn(C(c2ccccc2)(c2ccccc2)c2ccccc2)cn1)C(=O)N[C@@H](Cc1ccccc1)C(=O)N[C@@H](Cc1ccc(O)cc1)C(=O)N[C@@H](CCC(N)=O)C(=O)N[C@@H](CC(N)=O)C(=O)N[C@@H](CCC(N)=O)C(=O)N[C@@H](C)C(=O)N[C@@H](CCCNC(=N)N)C(=O)N[C@@H](Cc1ccccc1)C(N)=O", "note": "[HKFY-43, (S)-N1-((S)-1-(((S)-1-(((S)-1-amino-1-oxo-3-phenylpropan-2-yl)amino)-5-guanidino-1-oxopentan-2-yl)amino)-1-oxopropan-2-yl)-2-((2S,5S,8S,11S,14S)-2-(2-amino-2-oxoethyl)-14-((S)-2-amino-3-(1-trityl-1H-imidazol-4-yl)propanamido)-5-(3-amino-3-oxopropyl)-11-benzyl-8-(4-hydroxybenzyl)-4,7,10,13,20-pentaoxo-3,6,9,12,19-pentaazaheptacosanamido)pentanediamide] (H-[His(Trt)]K(Octanoyl)FYQNQARF-NH2)", "ECmax (-fold induction over basal)": "12.1 ± 0.02 -fold induction over basal"}
{"smiles": "CCCCCCCC(=O)NCCCC[C@H](N)C(=O)N[C@@H](Cc1cn(C(c2ccccc2)(c2ccccc2)c2ccccc2)cn1)C(=O)N[C@@H](Cc1ccccc1)C(=O)N[C@@H](Cc1ccc(O)cc1)C(=O)O", "note": "[HKFY-55, Na-(N6-octanoyl-L-lysyl)-Nt-trityl-L-histidyl-L-phenylalanyl-L-tyrosine] (H-K(Octanoyl)[His(Trt)]FY-OH)", "ECmax (-fold induction over basal)": "16.8 ± 2.5 -fold induction over basal"}
{"smiles": "CCCCCCCC(=O)NCCCC[C@H](NC(=O)[C@@H](N)Cc1cn(C(c2ccccc2)c2ccccc2)cn1)C(=O)O", "note": "[HKFY-79, N2-(Nt-benzhydryl-L-histidyl)-N6-octanoyl-L-lysine]", "ECmax (-fold induction over basal)": "11.2 ± 1.4 -fold induction over basal"}
{"smiles": "C[C@H](NC(=O)[C@H](CCC(N)=O)NC(=O)[C@H](CCC(N)=O)NC(=O)[C@H](CC(=O)O)NC(=O)[C@H](Cc1ccc(O)cc1)NC(=O)[C@H](Cc1ccccc1)NC(=O)[C@@H](N)Cc1cn(C(c2ccccc2)(c2ccccc2)c2ccccc2)cn1)C(=O)N[C@@H](CCCNC(=N)N)C(=O)N[C@@H](Cc1ccccc1)C(N)=O", "note": "[HKFY-52, (6S,9S,12S,15S,18S)-1-amino-6-(((S)-1-amino-1-oxo-3-phenylpropan-2-yl)carbamoyl)-18-((S)-2-((S)-2-((S)-2-amino-3-(1-trityl-1H-imidazol-4-yl)propanamido)-3-phenylpropanamido)-3-(4-hydroxyphenyl)propanamido)-12,15-bis(3-amino-3-oxopropyl)-1-imino-9-methyl-8,11,14,17-tetraoxo-2,7,10,13,16-pentaazaicosan-20-oic acid] (H-[His(Trt)]FYDQQARF-NH2)", "ECmax (-fold induction over basal)": "15.5 ± 2.2 -fold induction over basal"}
{"smiles": "CCCCCCCCCCCC(=O)NCCCC[C@H](NC(=O)[C@@H](N)Cc1cn(C(c2ccccc2)(c2ccccc2)c2ccccc2)cn1)C(=O)N[C@@H](Cc1ccccc1)C(=O)N[C@@H](Cc1ccc(O)cc1)C(=O)O", "note": "[HKFY-25, N6-dodecanoyl-N2-(Nt-trityl-L-histidyl)-L-lysyl-L-phenylalanyl-L-tyrosine] (H-[His(Trt)]K(Lauroyl)FY-OH)", "ECmax (-fold induction over basal)": "7.72 ± 0.57 -fold induction over basal"}
{"smiles": "CCCCCCCC(=O)NCCCC[C@H](NC(=O)[C@@H](N)Cc1cn(C(c2ccccc2)(c2ccccc2)c2ccccc2)cn1)C(=O)N[C@H](Cc1ccc(Cl)cc1)C(=O)N[C@H](Cc1ccc(O)cc1)C(=O)O", "note": "[HKFY-15, ((R)-2-((S)-2-((S)-2-amino-3-(1-trityl-1H-imidazol-4-yl)propanamido)-6-octanamidohexanamido)-3-(4-chlorophenyl)propanoyl)-D-tyrosine] (H-[His(Trt)]K(Octanoyl)[dPhe(4-Cl)][dY]-OH)", "ECmax (-fold induction over basal)": "24.7 ± 2.6 -fold induction over basal"}
{"biological_target": "T1, GPR39", "assay": "luciferase assay system (SRE luciferase reporter gene) for GPR39 in CV-1 cells", "conditions": "not given", "units": {"EC50": "µM"}}
{"smiles": "CCCCCCCC(=O)NCCCC[C@H](NC(=O)[C@@H](N)Cc1c[n+](CCCC2CCCCC2)cn1CCCC1CCCCC1)C(=O)N[C@@H](Cc1ccccc1)C(=O)N[C@@H](Cc1ccc(O)cc1)C(=O)O", "EC50": "33.7 ± 1.3"}
{"smiles": "CCCCCCCC(=O)NCCCC[C@H](NC(=O)[C@@H](N)Cc1cn(C(c2ccccc2)c2ccccc2)cn1)C(=O)N[C@H](Cc1ccc(C)cc1)C(=O)N[C@@H](Cc1c(C)cc(O)cc1C)C(=O)O", "note": "[HKFY-36, (S)-2-((R)-2-((S)-2-((S)-2-amino-3-(1-benzhydryl-1H-imidazol-4-yl)propanamido)-6-octanamidohexanamido)-3-(p-tolyl)propanamido)-3-(4-hydroxy-2,6-dimethylphenyl)propanoic acid] (H-[His(τ-CHPh2)]K(Octanoyl)[dPhe(4-Me)][Dmt]-OH)", "EC50": "0.15 ± 0.05"}
{"biological_target": "T1, GPR39", "assay": "luciferase assay system (SRE luciferase reporter gene) for GPR39 in CV-1 cells", "conditions": "CV-1 cells, GPR39 and SRE luciferase adenovirus, treated 6 hours, luminometer"}
{"smiles": "CCCCCCCC(=O)NCCCC[C@H](NC(=O)[C@@H](N)Cc1cn(C(c2ccccc2)c2ccccc2)cn1)C(=O)N[C@H](Cc1ccc(C)cc1)C(=O)N[C@@H](Cc1cc([N+](=O)[O-])c(O)c([N+](=O)[O-])c1)C(=O)O", "note": "[HKFY-69, (S)-2-((R)-2-((S)-2-((S)-2-amino-3-(1-benzhydryl-1H-imidazol-4-yl)propanamido)-6-octanamidohexanamido)-3-(p-tolyl)propanamido)-3-(4-hydroxy-3,5-dinitrophenyl)propanoic acid] (H-[His(τ-CHPh2)]K(Octanoyl)[dPhe(4-Me)][Tyr(3,5-(NO2)2)]-OH)", "ECmax (-fold induction over basal)": "12.2 ± 2.5 -fold induction over basal"}
{"smiles": "CCCCCCCC(=O)NCCCC[C@H](NC(=O)[C@@H](N)Cc1c[n+](CCCc2ccccc2)cn1CCCc1ccccc1)C(=O)N[C@@H](Cc1ccccc1)C(=O)N[C@@H](Cc1ccc(O)cc1)C(=O)O", "ECmax (-fold induction over basal)": "15 ± 2.12 -fold induction over basal"}
{"smiles": "CCCCCCCC(=O)NCCCC[C@H](NC(=O)[C@@H](N)Cc1c[n+](CCCC2CCCCC2)cn1CCCC1CCCCC1)C(=O)N[C@@H](Cc1ccccc1)C(=O)N[C@@H](Cc1ccc(O)cc1)C(=O)O", "ECmax (-fold induction over basal)": "17.3 ± 1.22 -fold induction over basal"}
{"smiles": "CCCCCCCC(=O)NCCCC[C@H](NC(=O)[C@@H](N)Cc1cncn1CCCC1CCCCC1)C(=O)N[C@@H](Cc1ccccc1)C(=O)N[C@@H](Cc1ccc(O)cc1)C(=O)O", "ECmax (-fold induction over basal)": "16 ± 2.2 -fold induction over basal"}
{"smiles": "CCCCCCCC(=O)NCCCC[C@H](NC(=O)[C@@H](N)Cc1cn(C(c2ccccc2)c2ccccc2)cn1)C(=O)N[C@H](Cc1ccc(C)cc1)C(=O)N[C@@H](Cc1c(C)cc(O)cc1C)C(=O)O", "note": "[HKFY-36, (S)-2-((R)-2-((S)-2-((S)-2-amino-3-(1-benzhydryl-1H-imidazol-4-yl)propanamido)-6-octanamidohexanamido)-3-(p-tolyl)propanamido)-3-(4-hydroxy-2,6-dimethylphenyl)propanoic acid] (H-[His(τ-CHPh2)]K(Octanoyl)[dPhe(4-Me)][Dmt]-OH)", "ECmax (-fold induction over basal)": "9.9 ± 0.28 -fold induction over basal"}
